Marks after values point to notes of the source that are not given here.

These results are taken from publication PMC7178819, “6,7-Dimethoxy-2-phenethyl-1,2,3,4-tetrahydroisoquinoline amides and corresponding ester isosteres as multidrug resistance reversers” (Journal of Enzyme Inhibition and Medicinal Chemistry, 2020).

Holding throughout (format): cell-based
One data set has as its target T1, P-gp (Homo sapiens, UniProt P08183).
T1 construct: expressed in transfected cells; host or cells: MDCK-MDR1 (Madin-Darby Canine Kidney cells, gift of Prof. P. Borst, NKI-AVL)
As to the kind of experiment: Inhibition of Calcein-AM transport in MDCK-MDR1 cells. The note with it: for EC50: Calcein-AM, MDCK-MDR1 cells, mean ± SEM of two experiments; for inhibition at 30 min, 10 µM: human, MDCK-MDR1 cells (overexpressing P-gp), probe Calcein-AM (2.5 µM), at 10 µM, read-out: P-gp maximum inhibition. The essentials: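 Confluent MDCK-MDR1 monolayers preincubated 30 min at 37 °C with compound (1 nM-100 µM), then 2.5 µM Calcein-AM (final) 30 min. After ice-cold PBS washes, fluorescence read (ex 485/em 535 nm); EC50 from % fluorescence increase over untreated basal versus log dose.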

The target of the next data set is T2, BCRP (Homo sapiens, UniProt Q9UNQ0).
T2 construct: expressed in transfected cells; host or cells: MDCK-BCRP (Madin-Darby Canine Kidney cells, gift of Prof. P. Borst, NKI-AVL)
T2 sequence (Q9UNQ0 1-655): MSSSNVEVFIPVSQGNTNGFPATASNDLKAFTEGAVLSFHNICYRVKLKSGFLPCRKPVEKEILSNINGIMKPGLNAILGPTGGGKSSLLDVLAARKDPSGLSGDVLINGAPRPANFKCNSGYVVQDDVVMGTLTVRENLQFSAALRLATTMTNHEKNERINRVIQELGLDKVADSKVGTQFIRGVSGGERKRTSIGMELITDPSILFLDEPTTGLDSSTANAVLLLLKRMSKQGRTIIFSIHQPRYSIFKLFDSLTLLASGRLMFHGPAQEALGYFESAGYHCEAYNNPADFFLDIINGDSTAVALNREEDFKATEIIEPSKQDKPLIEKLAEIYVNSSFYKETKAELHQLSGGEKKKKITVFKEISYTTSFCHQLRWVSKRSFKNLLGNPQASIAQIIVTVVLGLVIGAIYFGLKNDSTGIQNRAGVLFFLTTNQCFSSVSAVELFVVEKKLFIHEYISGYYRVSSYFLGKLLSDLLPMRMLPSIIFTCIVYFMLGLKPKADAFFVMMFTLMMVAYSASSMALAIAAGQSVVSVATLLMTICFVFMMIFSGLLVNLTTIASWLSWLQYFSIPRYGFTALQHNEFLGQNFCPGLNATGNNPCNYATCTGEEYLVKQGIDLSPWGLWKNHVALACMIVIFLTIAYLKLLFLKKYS
As to the kind of experiment: Inhibition of Hoechst 33342 efflux in MDCK-BCRP cells. The note with it: for EC50: Hoechst 33342, MDCK-BCRP cells, NA: not active; for BCRP, percentage of the effect: at a concentration of 100 μM, MDCK-BCRP cells. The procedure: These experiments were carried out as described by Teodori et al.[34]. Each cell line (30 000 cells per well) was seeded into black CulturePlate 96/wells plate with 100 µL medium and allowed to become confluent overnight. 100 µL of test compounds were solubilised in culture medium and added to monolayers, with final concentrations ranging from 1 to 100 µM. 96/Wells plate was incubated for 30 min in a humidified atmosphere 5% CO2 at 37 °C. Hoechst 33342 was added in 100 µl of phosphate-buffered saline (PBS) to yield a final concentration of 8 µM and plate was incubated for 30 min in a humidified atmosphere 5% CO2 at 37 °C. The supernatants were drained, and the cells were fixed for 20 min under light protection using 100 µL per well of a 4% PFA solution. Each well was washed three times with ice cold PBS. Saline buffer was added to each well and the plate was read with Victor3 (PerkinElmer) at excitation and emission wavelengths of 340/35 nm and 485/20 nm, respectively. In these experimental conditions, Hoechst 33342 accumulation in the absence and in the presence of tested compounds was evaluated and fluorescence basal level was estimated with untreated cells. In treated wells, the increase of fluorescence with respect to basal level was measured. EC50 values were determined by fitting the fluorescence increase percentage versus log[dose]. […]

A further data set concerns the target T3, MRP1 (Homo sapiens, UniProt P33527).
T3 construct: expressed in transfected cells; host or cells: MDCK-MRP1 (Madin-Darby Canine Kidney cells, gift of Prof. P. Borst, NKI-AVL)
The data set can be described thus: Inhibition of Calcein-AM efflux in MDCK-MRP1 cells. The following applies: for MRP1, percentage of the effect: at a concentration of 100 μM; for EC50: Calcein-AM, NA: not active. As for the experimental part: These experiments were carried out as previously described by Teodori et al. with minor modifications. Each cell line (30 000 cells per well) was seeded into black CulturePlate 96/wells plate with 100 µL medium and allowed to become confluent overnight. 100 µL of test compounds were solubilised in culture medium and added to monolayers, with final concentrations ranging from 1 nM to 100 µM. 96/Wells plate was incubated for 30 min in a humidified atmosphere 5% CO2 at 37 °C. Calcein-AM was added in 100 µL of Phosphate Buffered Saline (PBS) to yield a final concentration of 2.5 µM and plate was incubated for 30 min in a humidified atmosphere 5% CO2 at 37 °C. Each well was washed 3 times with ice cold PBS. Saline buffer was added to each well and the plate was read with Victor3 (PerkinElmer) at excitation and emission wavelengths of 485 and 535 nm, respectively. In these experimental conditions, Calcein cell accumulation in the absence and in the presence of tested compounds was evaluated and fluorescence basal level was estimated with untreated cells. In treated wells the increase of fluorescence with respect to basal level was measured. EC50 values were determined by fitting the fluorescence increase percentage versus log[dose].
The interaction potency between the designed compounds and P-gp was evaluated by measuring the transport inhibition of the pro-fluorescent probe Calcein-AM, that is a P-gp substrate, in a cell line overexpressing P-gp (MDCK-MDR1)[47]. The P-gp interacting profile was further investigated with two other assays: the Apparent Permeability (Papp) determination (BA/AB) in Caco-2 cell monolayer[48]^,[49], and the ATP cell depletion in the MDCK-MDR1 cell line[50]. Taking into account the results of the combined tests, an interacting compound can be classified as substrate or inhibitor. Papp determination measures the ratio between two fluxes: from the basolateral to apical compartments (BA, representative of passive diffusion) and from the apical to basolateral compartments (AB, representative of active transport). […] In the same manner, if (BA/AB) >2, the compound should probably be classified as a substrate. […] The selectivity of ligands 1–26 was evaluated by detecting their activity towards the other ABC transporters MRP1 and BCRP, by measuring the inhibition of the efflux of Calcein-AM (i.e., also a MRP1 substrate) in cells overexpressing MRP1 (MDCK-MRP1 cells), and the inhibition of the efflux of the fluorescent probe Hoechst 33342 (i.e. a BCRP substrate) in cells overexpressing BCRP (MDCK-BCRP cells), respectively.

T1 sequence (P08183 whole entry): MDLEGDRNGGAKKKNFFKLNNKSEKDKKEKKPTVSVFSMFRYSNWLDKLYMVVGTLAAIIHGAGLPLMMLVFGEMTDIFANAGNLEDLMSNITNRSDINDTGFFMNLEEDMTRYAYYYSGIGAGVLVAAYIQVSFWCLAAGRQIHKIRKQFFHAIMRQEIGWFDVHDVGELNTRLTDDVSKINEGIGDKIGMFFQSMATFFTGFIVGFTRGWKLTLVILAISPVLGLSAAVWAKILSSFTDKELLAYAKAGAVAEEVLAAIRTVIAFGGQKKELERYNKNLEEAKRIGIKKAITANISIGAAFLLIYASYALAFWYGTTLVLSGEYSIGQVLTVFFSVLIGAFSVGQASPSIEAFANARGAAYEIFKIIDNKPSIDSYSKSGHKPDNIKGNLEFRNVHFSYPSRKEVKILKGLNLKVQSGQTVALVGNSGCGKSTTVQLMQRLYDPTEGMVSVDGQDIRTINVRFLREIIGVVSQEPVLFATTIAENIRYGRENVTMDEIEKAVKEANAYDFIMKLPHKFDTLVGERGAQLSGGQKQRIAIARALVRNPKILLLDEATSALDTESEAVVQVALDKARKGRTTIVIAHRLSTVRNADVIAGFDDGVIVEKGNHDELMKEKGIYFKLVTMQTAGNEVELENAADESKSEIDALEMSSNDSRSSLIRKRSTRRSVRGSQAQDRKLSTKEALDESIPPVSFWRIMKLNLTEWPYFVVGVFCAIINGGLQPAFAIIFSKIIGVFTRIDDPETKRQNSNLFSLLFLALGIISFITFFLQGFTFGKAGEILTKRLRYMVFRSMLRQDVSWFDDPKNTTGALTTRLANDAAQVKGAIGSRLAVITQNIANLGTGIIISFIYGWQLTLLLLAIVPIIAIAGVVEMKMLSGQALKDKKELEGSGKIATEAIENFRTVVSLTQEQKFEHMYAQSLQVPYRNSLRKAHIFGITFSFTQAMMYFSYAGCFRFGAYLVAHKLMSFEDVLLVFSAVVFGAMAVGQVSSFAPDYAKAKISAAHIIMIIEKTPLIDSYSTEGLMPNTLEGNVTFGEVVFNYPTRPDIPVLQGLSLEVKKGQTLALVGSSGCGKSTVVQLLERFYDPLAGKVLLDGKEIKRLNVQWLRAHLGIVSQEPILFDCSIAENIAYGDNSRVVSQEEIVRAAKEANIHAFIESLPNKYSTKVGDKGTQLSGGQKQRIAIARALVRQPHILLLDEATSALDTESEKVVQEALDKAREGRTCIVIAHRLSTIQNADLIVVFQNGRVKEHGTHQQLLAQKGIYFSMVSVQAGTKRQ
T3 sequence (P33527 whole entry): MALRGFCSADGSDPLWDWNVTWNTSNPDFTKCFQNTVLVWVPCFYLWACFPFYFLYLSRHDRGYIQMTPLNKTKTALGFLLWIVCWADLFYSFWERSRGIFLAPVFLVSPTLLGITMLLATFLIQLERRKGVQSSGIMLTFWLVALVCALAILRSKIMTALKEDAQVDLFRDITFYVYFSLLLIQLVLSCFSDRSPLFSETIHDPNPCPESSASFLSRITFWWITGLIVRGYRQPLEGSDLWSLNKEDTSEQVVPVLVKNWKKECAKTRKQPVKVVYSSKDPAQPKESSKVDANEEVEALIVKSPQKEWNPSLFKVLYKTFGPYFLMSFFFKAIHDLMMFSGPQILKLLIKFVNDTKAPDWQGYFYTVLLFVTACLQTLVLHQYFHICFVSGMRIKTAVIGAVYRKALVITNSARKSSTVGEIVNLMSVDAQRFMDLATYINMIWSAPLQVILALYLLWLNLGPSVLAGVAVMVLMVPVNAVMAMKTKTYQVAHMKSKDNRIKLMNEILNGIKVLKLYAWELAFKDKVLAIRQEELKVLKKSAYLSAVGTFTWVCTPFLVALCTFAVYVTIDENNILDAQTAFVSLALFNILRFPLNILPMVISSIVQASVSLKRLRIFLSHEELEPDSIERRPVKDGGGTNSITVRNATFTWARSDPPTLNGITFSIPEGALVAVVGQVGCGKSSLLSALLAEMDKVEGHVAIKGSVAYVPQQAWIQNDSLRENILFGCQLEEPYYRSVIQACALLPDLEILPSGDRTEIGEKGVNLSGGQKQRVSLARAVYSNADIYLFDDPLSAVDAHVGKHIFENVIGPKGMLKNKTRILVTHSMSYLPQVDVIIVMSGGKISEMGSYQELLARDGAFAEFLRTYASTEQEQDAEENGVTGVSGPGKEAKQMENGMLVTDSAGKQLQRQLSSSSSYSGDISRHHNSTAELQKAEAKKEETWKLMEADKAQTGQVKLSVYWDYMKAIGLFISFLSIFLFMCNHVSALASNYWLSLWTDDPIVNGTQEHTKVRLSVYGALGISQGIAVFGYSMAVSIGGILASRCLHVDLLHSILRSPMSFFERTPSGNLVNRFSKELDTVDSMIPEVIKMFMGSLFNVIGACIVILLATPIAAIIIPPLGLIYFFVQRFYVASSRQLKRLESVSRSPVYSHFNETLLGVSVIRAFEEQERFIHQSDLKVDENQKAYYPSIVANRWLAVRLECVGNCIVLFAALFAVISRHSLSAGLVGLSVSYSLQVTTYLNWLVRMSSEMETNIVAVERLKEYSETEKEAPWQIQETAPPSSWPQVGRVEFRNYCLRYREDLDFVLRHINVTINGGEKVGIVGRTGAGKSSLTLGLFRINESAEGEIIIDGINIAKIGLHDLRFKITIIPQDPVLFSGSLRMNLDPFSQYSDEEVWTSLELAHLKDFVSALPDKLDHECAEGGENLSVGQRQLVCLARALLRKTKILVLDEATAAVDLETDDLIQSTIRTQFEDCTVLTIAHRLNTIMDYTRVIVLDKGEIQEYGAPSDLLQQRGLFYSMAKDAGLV

For orientation: EC50 means the midpoint of the concentration-response curve. Consider `COc1cc2c(cc1OC)CN(CCc1ccc(NC(=O)c3ccc(OC)c(OC)c3OC)cc1)CC2` [Compound 1, N-(4–(2-(6,7-dimethoxy-3,4-dihydroisoquinolin-2(1H)-yl)ethyl)phenyl)-2,3,4-trimethoxybenzamide], for which the EC50 at P-gp was 530 ± 100 nM; on BCRP, 21200 ± 4200 nM.

As for `COc1cc2c(cc1OC)CN(CCc1ccc(OC(=O)c3c(OC)c(OC)cc4ccccc34)cc1)CC2` [Compound 21, 4–(2-(6,7-Dimethoxy-3,4-dihydroisoquinolin-2(1H)-yl)ethyl)phenyl 2,3-dimethoxy-1-naphthoate], at P-gp, the EC50 was 100 ± 20 nM. For the same compound, at BCRP, the “BCRP, percentage of the effect” value was 43%^d.

The term inhibition denotes the share of the control response that was lost under treatment. With `COc1ccc(C(=O)Nc2ccc(CCN3CCc4cc(OC)c(OC)cc4C3)cc2)c(OC)c1` [Compound 3, N-(4–(2-(6,7-dimethoxy-3,4-dihydroisoquinolin-2(1H)-yl)ethyl)phenyl)-2,4-dimethoxybenzamide], the “MRP1, percentage of the effect” value at MRP1 is on record as 31%^d. Besides, on P-gp, the EC50 is 40.5 ± 8 nM and the inhibition at 30 min, 10 µM is 90 to 95%. On BCRP, this compound yielded an EC50 of 1000 ± 200 nM.

As for `COc1cc2c(cc1OC)CN(CCc1ccc(NC(=O)c3cccc(OC)c3OC)cc1)CC2` [Compound 5, N-(4–(2-(6,7-dimethoxy-3,4-dihydroisoquinolin-2(1H)-yl)ethyl)phenyl)-2,3-dimethoxybenzamide], at P-gp, the 50% effective concentration (EC50) was 260 ± 50 nM. Also, the “BCRP, percentage of the effect” value at BCRP is 41%^d.

Take `COc1ccc(C(=O)Oc2ccc(CCN3CCc4cc(OC)c(OC)cc4C3)cc2)c(OC)c1` [Compound 16, 4–(2-(6,7-Dimethoxy-3,4-dihydroisoquinolin-2(1H)-yl)ethyl)phenyl 2,4-dimethoxybenzoate]: the results for the EC50 at MRP1, at P-gp and at BCRP were 87000 ± 17000 nM, 100 ± 20 nM and 11000 ± 2000 nM, respectively.

As to `COc1cc2c(cc1OC)CN(CCc1ccc(NC(=O)c3c(OC)c(OC)cc4ccccc34)cc1)CC2` [Compound 8, N-(4–(2-(6,7-dimethoxy-3,4-dihydroisoquinolin-2(1H)-yl)ethyl)phenyl)-2,3-dimethoxy-1-naphthamide], the “MRP1, percentage of the effect” value at MRP1 is listed as 47%^d. Also, on P-gp, the EC50 is 47.8 ± 9.3 nM and the inhibition at 30 min, 10 µM is 90 to 95%.

`COc1cc2c(cc1OC)CN(CCc1ccc(OC(=O)c3ccc(OC)c(OC)c3OC)cc1)CC2` [Compound 14, 4–(2-(6,7-Dimethoxy-3,4-dihydroisoquinolin-2(1H)-yl)ethyl)phenyl 2,3,4-trimethoxybenzoate]: the values for the EC50 on MRP1, on P-gp and on BCRP were 69700 ± 13900 nM, 360 ± 69 nM and 15100 ± 2890 nM, respectively.

On to `COc1cc2c(cc1OC)CN(CCc1ccc(OC(=O)c3c(OC)ccc4ccccc34)cc1)CC2` [Compound 20, 4–(2-(6,7-Dimethoxy-3,4-dihydroisoquinolin-2(1H)-yl)ethyl)phenyl 2-methoxy-1-naphthoate], for which the results for the EC50 on P-gp and on BCRP were 110 ± 20 nM and 7300 ± 1400 nM, respectively.

Take `COc1cc2c(cc1OC)CN(CCc1ccc(OC(=O)c3cccc(OC)c3OC)cc1)CC2` [Compound 18, 4–(2-(6,7-Dimethoxy-3,4-dihydroisoquinolin-2(1H)-yl)ethyl)phenyl 2,3-dimethoxybenzoate]: the EC50 on P-gp is 340 ± 70 nM. For the same compound, the “BCRP, percentage of the effect” value on BCRP is listed as 44%^d.

Turning to `COc1cc2c(cc1OC)CN(CCc1ccc(OC(=O)c3cccc4ccccc34)cc1)CC2` [Compound 19, 4–(2-(6,7-Dimethoxy-3,4-dihydroisoquinolin-2(1H)-yl)ethyl)phenyl 1-naphthoate], on P-gp, the 50% effective concentration (EC50) was 840 ± 160 nM. For the same compound, the “BCRP, percentage of the effect” value on BCRP was 35%^d.

Regarding `COc1cc2c(cc1OC)CN(CCc1ccc(OC(=O)c3ccccc3OC)cc1)CC2` [Compound 15, 4–(2-(6,7-Dimethoxy-3,4-dihydroisoquinolin-2(1H)-yl)ethyl)phenyl 2-methoxybenzoate], the EC50 at P-gp was 730 ± 140 nM. Further, the “BCRP, percentage of the effect” value at BCRP turned out to be 47%^d.
